Results taken from patent publication US7700788B2, “Hydroxymethyl furfural oxidation methods” (Battelle Memorial Institute, priority 2006, dated 2010).

Test: Solubility of FDCA in acetic acid/water mixtures
Format: physicochemical

Solubility (0 Vol % HOAc / 100 Vol % H2O, 25° C.): 0.086 wt %
Solubility (0 Vol % HOAc / 100 Vol % H2O, 70° C.): 0.327 wt %
Solubility in 40/60 HOAc/H2O relative to pure water (40/60 HOAc/H2O versus pure water): about twice the solubility in pure water
Solubility (40 Vol % HOAc / 60 Vol % H2O, 25° C.): 0.153 wt %
Solubility (40 Vol % HOAc / 60 Vol % H2O, 70° C.): 0.779 wt %
Solubility (50 Vol % HOAc / 50 Vol % H2O, 25° C.): 0.173 wt %
Solubility (50 Vol % HOAc / 50 Vol % H2O, 70° C.): 0.746 wt %
Solubility (60 Vol % HOAc / 40 Vol % H2O, 25° C.): 0.171 wt %
Solubility (60 Vol % HOAc / 40 Vol % H2O, 70° C.): 0.596 wt %
Solubility (70 Vol % HOAc / 30 Vol % H2O, 25° C.): 0.143 wt %
Solubility (70 Vol % HOAc / 30 Vol % H2O, 70° C.): 0.592 wt %
Solubility (90 Vol % HOAc / 10 Vol % H2O, 25° C.): 0.138 wt %
Solubility (90 Vol % HOAc / 10 Vol % H2O, 70° C.): 0.458 wt %
Solubility (100 Vol % HOAc / 0 Vol % H2O, 25° C.): 0.080 wt %
Solubility (100 Vol % HOAc / 0 Vol % H2O, 70° C.): 0.193 wt %
SMILES: O=C(O)c1ccc(C(=O)O)o1 [FDCA]
